Patent US8592382B2, “Formulations for the oral administration of therapeutic agents and related methods” (The University of British Columbia, priority 2007, dated 2013)
Where two headings read alike, the source gives them in different places.

Columns and labels:
[1] = Solubility of the drug substance in water, solvents or simulated GI media; format: physicochemical
[2] = cited from earlier work
[3] = test system: Leishmania; conditions: visceral leishmaniasis, IV therapy; cited from earlier work
[4] = oral; cited from earlier work

## C[C@@H]1[C@H](O)[C@@H](C)/C=C/C=C/C=C/C=C/C=C/C=C/C=C/[C@H](O[C@@H]2O[C@H](C)[C@@H](O)[C@H](N)[C@@H]2O)C[C@@H]2O[C@](O)(C[C@@H](O)C[C@@H](O)[C@H](O)CC[C@@H](O)C[C@@H](O)CC(=O)O[C@H]1C)C[C@H](O)[C@H]2C(=O)O (relative stereo) [amphotericin B, [1R-(1R*,3S*,5R*,6R*,9R*,11R*,15S*,16R*,17R*,18S*,19E,21E,23E,25E,27E,29E,31E,33R*,35S*,36R*,37S,)]-33-[(3-amino-3,6-dideoxy-β-D-mannopyranosyl)oxy]1,3,5,6,9,11,17,37-octahydroxy-15,16,18-trimethyl-13-oxo-14,39-dioxabicyclo-[33.3.1]nonatriaconta-19,21,23,25,27,29,31-heptaene-36-carboxylic acid]
[1]; aqueous solution (pH 7)
  AmpB solubility in aqueous solution: negligible
[1]; simulated gastric and intestinal fluids
  Solubility of AmpB neat powder in simulated GI media: not soluble
[2]; water
  Solubility of crystalline substance in water: insoluble
[3]
  Cure rate: 97%
[4]
  Bioavailability: negligible

## CC(=O)O[C@@]12CO[C@@H]1C[C@H](O)[C@@]1(C)C(=O)[C@H](O)C3=C(C)[C@@H](OC(=O)[C@H](O)[C@@H](NC(=O)OC(C)(C)C)c4ccccc4)C[C@@](O)([C@@H](OC(=O)c4ccccc4)[C@H]21)C3(C)C [docetaxel]
[2]; water
  Solubility in water: 10 to 25 µg/mL

## Clc1ccc(COC(Cn2ccnc2)c2ccc(Cl)cc2Cl)cc1 (centres unmarked) [econazole]
[2]; ethanol
  Solubility in ethanol: ≤ 20000 µg/mL
[2]; water, 19-66° F.
  Solubility in water: < 1000 µg/mL
